Laboratory results: patent publication US11446287B2, “Compounds and methods for EP300 or CBP modulation and indications therefor” (Opna Immuno-Oncology SA, priority 2019, dated 2022)

Biological target: T1, Recombinant human EP300 containing the bromodomain (EP300-BD (1040-1161)) (Homo sapiens, UniProt Q09472)
T1 construct: Recombinant human EP300 bromodomain (EP300-BD (1040-1161)); made in house; host or cells: E. coli BL21-CodonPlus (DE3), modified pET vector
T1 sequence (Q09472 1040-1161): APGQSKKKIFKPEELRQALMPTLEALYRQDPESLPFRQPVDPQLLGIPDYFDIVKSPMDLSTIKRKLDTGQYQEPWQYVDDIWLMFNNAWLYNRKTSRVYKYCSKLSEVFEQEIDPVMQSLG
Assay: EP300 Alphascreen binding assay
How it was run: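 Displacement of a biotinylated acetyl-K56 histone H3 peptide from the N-His bromodomain construct (1040-1161) measured by AlphaScreen proximity, beads at 7.5 μg/ml final, read 60 min after addition. Protein, peptide and compound first incubated 1 h at room temperature, pH 7.5 HEPES buffer; IC50 by four-parameter logistic fit.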

SMILES | IC50
Cc1noc(C)c1-c1cnc2c(c1)c(-c1c(Cl)cc(C(=O)O)cc1OC1CCC1)cn2C(C1CC1)C1CC1 [P-0356, 3-chloro-5-cyclobutoxy-4-(1-(dicyclopropylmethyl)-5-(3,5-dimethylisoxazol-4-yl)-1H-pyrrolo[2,3-b]pyridin-3-yl)benzoic acid] | 0.1 to 1000 nM
Cc1noc(C)c1-c1cnc2c(c1)c(-c1ccc(C(=O)O)c(O)c1)cn2C(c1ccccn1)C1CCCC1 (stereo not shown) [P-0030, 4-(1-(cyclopentyl(pyridin-2-yl)methyl)-5-(3,5-dimethylisoxazol-4-yl)-1H-pyrrolo[2,3-b]pyridin-3-yl)-2-hydroxybenzoic acid] | 1000 to 8000 nM
CCOc1cc(C(=O)O)c(F)c(OCC)c1-c1cn(C2CCOCC2)c2ncc(-c3c(C)noc3C)cc12 [P-0374, 4-(5-(3,5-dimethylisoxazol-4-yl)-1-(tetrahydro-2H-pyran-4-yl)-1H-pyrrolo[2,3-b]pyridin-3-yl)-3,5-diethoxy-2-fluorobenzoic acid] | 0.1 to 1000 nM
Cc1noc(C)c1-c1cnc2c(c1)c(-c1ccc(C(=O)O)cc1OC(F)(F)F)cn2-c1cnn(C)c1 [P-0318, 4-(5-(3,5-dimethylisoxazol-4-yl)-1-(1-methyl-1H-pyrazol-4-yl)-1H-pyrrolo[2,3-b]pyridin-3-yl)-3-(trifluoromethoxy)benzoic acid] | 0.1 to 1000 nM
Cc1noc(C)c1-c1cnc2c(c1)c(-c1ccc(C(=O)O)cc1OC1CCC1)cn2C1CCOCC1 [P-0341, 3-cyclobutoxy-4-(5-(3,5-dimethylisoxazol-4-yl)-1-(tetrahydro-2H-pyran-4-yl)-1H-pyrrolo[2,3-b]pyridin-3-yl)benzoic acid] | 0.1 to 1000 nM
Cc1ncccc1-n1cc(-c2ccc(C(=O)O)cc2OC(F)(F)F)c2cc(-c3c(C)noc3C)cnc21 [P-0317, 4-(5-(3,5-dimethylisoxazol-4-yl)-1-(2-methylpyridin-3-yl)-1H-pyrrolo[2,3-b]pyridin-3-yl)-3-(trifluoromethoxy)benzoic acid] | 0.1 to 1000 nM
Cc1noc(C)c1-c1cnc2c(c1)c(-c1ccc(C(=O)O)cc1OCC(F)F)cn2C(C1CC1)C1CC1 [P-0338, 4-(1-(dicyclopropylmethyl)-5-(3,5-dimethylisoxazol-4-yl)-1H-pyrrolo[2,3-b]pyridin-3-yl)-3-(2,2-difluoroethoxy)benzoic acid] | 0.1 to 1000 nM
COc1ncccc1-n1cc(-c2ccc(C(=O)O)cc2OC(F)(F)F)c2cc(-c3c(C)noc3C)cnc21 [P-0316, 4-(5-(3,5-dimethylisoxazol-4-yl)-1-(2-methoxypyridin-3-yl)-1H-pyrrolo[2,3-b]pyridin-3-yl)-3-(trifluoromethoxy)benzoic acid] | 0.1 to 1000 nM
Cc1noc(C)c1-c1cnc2c(c1)c(-c1ccc(C(=O)O)cc1OC(C)C)cn2C1CCOCC1 [P-0357, 4-(5-(3,5-dimethylisoxazol-4-yl)-1-(tetrahydro-2H-pyran-4-yl)-1H-pyrrolo[2,3-b]pyridin-3-yl)-3-isopropoxybenzoic acid] | 0.1 to 1000 nM
Cc1noc(C)c1-c1cnc2c(c1)c(-c1c(Cl)cc(C(=O)O)cc1OC(F)(F)F)cn2-c1cnc(C2CC2)nc1 [P-0386, 3-chloro-4-(1-(2-cyclopropylpyrimidin-5-yl)-5-(3,5-dimethylisoxazol-4-yl)-1H-pyrrolo[2,3-b]pyridin-3-yl)-5-(trifluoromethoxy)benzoic acid] | 0.1 to 1000 nM
Cc1noc(C)c1-c1cnc2c(c1)c(-c1c(Cl)cc(C(=O)O)cc1OC1CC1)cn2C1CCOCC1 [P-0381, 3-chloro-5-cyclopropoxy-4-(5-(3,5-dimethylisoxazol-4-yl)-1-(tetrahydro-2H-pyran-4-yl)-1H-pyrrolo[2,3-b]pyridin-3-yl)benzoic acid] | 0.1 to 1000 nM
Cc1noc(C)c1-c1cnc2c(c1)c(-c1ccc(C(=O)O)cc1OCC(F)F)cn2-c1cnc(C2CC2)nc1 [P-0387, 4-(1-(2-cyclopropylpyrimidin-5-yl)-5-(3,5-dimethylisoxazol-4-yl)-1H-pyrrolo[2,3-b]pyridin-3-yl)-3-(2,2-difluoroethoxy)benzoic acid] | 0.1 to 1000 nM
Cc1noc(C)c1-c1cnc2c(c1)c(-c1c(Cl)cc(C(=O)O)cc1OC(F)(F)F)cn2C(C1CCC1)C1CCC1 [P-0380, 3-chloro-4-(1-(dicyclobutylmethyl)-5-(3,5-dimethylisoxazol-4-yl)-1H-pyrrolo[2,3-b]pyridin-3-yl)-5-(trifluoromethoxy)benzoic acid] | 0.1 to 1000 nM
Cc1noc(C)c1-c1cnc2c(c1)c(-c1c(Cl)cc(C(=O)O)cc1OC1CC1)cn2C(C1CC1)C1CC1 [P-0363, 3-chloro-5-cyclopropoxy-4-(1-(dicyclopropylmethyl)-5-(3,5-dimethylisoxazol-4-yl)-1H-pyrrolo[2,3-b]pyridin-3-yl)benzoic acid] | 0.1 to 1000 nM
Cc1noc(C)c1-c1cnc2c(c1)c(-c1ccc(C(=O)O)c(C(F)(F)F)c1)cn2C(c1ccccn1)C1CCCC1 (stereo not shown) [P-0029, 4-(1-(cyclopentyl(pyridin-2-yl)methyl)-5-(3,5-dimethylisoxazol-4-yl)-1H-pyrrolo[2,3-b]pyridin-3-yl)-2-(trifluoromethyl)benzoic acid] | 0.1 to 1000 nM
CCOc1cc(C(=O)O)c(F)cc1-c1cn(C2CCOCC2)c2ncc(-c3c(C)noc3C)cc12 [P-0375, 4-(5-(3,5-dimethylisoxazol-4-yl)-1-(tetrahydro-2H-pyran-4-yl)-1H-pyrrolo[2,3-b]pyridin-3-yl)-5-ethoxy-2-fluorobenzoic acid] | 0.1 to 1000 nM
Cc1nn(CC(=O)N(C)C)cc1-n1cc(-c2ccc(C(=O)O)cc2OC(F)(F)F)c2cc(-c3c(C)noc3C)cnc21 [P-0366, 4-(1-(1-(2-(dimethylamino)-2-oxoethyl)-3-methyl-1H-pyrazol-4-yl)-5-(3,5-dimethylisoxazol-4-yl)-1H-pyrrolo[2,3-b]pyridin-3-yl)-3-(trifluoromethoxy)benzoic acid] | 0.1 to 1000 nM
Cc1noc(C)c1-c1cnc2c(c1)c(-c1ccc(CC(=O)O)cc1)cn2C(c1ccccn1)C1CCCC1 (stereo not shown) [P-0031, 2-(4-(1-(cyclopentyl(pyridin-2-yl)methyl)-5-(3,5-dimethylisoxazol-4-yl)-1H-pyrrolo[2,3-b]pyridin-3-yl)phenyl)acetic acid] | 0.1 to 1000 nM
Cc1noc(C)c1-c1cnc2c(c1)c(-c1c(Cl)cc(C(=O)O)cc1OCC(F)F)cn2C1CCOCC1 [P-0359, 3-chloro-5-(2,2-difluoroethoxy)-4-(5-(3,5-dimethylisoxazol-4-yl)-1-(tetrahydro-2H-pyran-4-yl)-1H-pyrrolo[2,3-b]pyridin-3-yl)benzoic acid] | 0.1 to 1000 nM
Cc1noc(C)c1-c1cnc2c(c1)c(-c1ccc(C(=O)O)cc1OC1CCC1)cn2[C@H]1CCOC1 [P-0350, (S)-3-cyclobutoxy-4-(5-(3,5-dimethylisoxazol-4-yl)-1-(tetrahydrofuran-3-yl)-1H-pyrrolo[2,3-b]pyridin-3-yl)benzoic acid] | 0.1 to 1000 nM
Cc1noc(C)c1-c1cnc2c(c1)c(-c1ccc(C(=O)O)cc1Cl)cn2C(c1ccccn1)C1CCCC1 (stereo not shown) [P-0027, 3-chloro-4-(1-(cyclopentyl(pyridin-2-yl)methyl)-5-(3,5-dimethylisoxazol-4-yl)-1H-pyrrolo[2,3-b]pyridin-3-yl)benzoic acid] | 0.1 to 1000 nM
Cc1noc(C)c1-c1cnc2c(c1)c(-c1ccc(C(=O)O)cc1OC(F)(F)F)cn2-c1cnc(N(C)C)nc1 [P-0321] | 0.1 to 1000 nM
